Results published in ChEMBL document CHEMBL1862790, “Optimisation of fenarimol series for the treatment of Chagas disease”.

What was measured:
Trypanosoma cruzi [1] = assay: microbe, parasite or virus in culture; format: functional, organism-based, Tulahuen LacZ, Clone C4; conditions: Trypanosoma cruzi, Tulahuen LacZ, Clone C4
Trypanosoma cruzi [2] = assay: microbe, parasite or virus in culture; format: functional, Tulahuen LacZ, Clone C4; conditions: Trypanosoma cruzi, Tulahuen LacZ, Clone C4
[3] = DNDI: Cytotoxicity against L-6 rat myoblasts from skeletal muscle cells; conditions: L6 rat skeletal muscle myoblast cells, IC50

Structure (SMILES)	IC50 (Trypanosoma cruzi [1]) [nM]	IC90 (Trypanosoma cruzi [2]) [nM]	IC50 [3] [nM]
N#Cc1ccc(C(c2cccnc2)N2CCC(NC(=O)c3cscn3)CC2)cc1 (stereo unspecified)	174	298	> 100000
O=C(NC1CC1)N1CCN(C(c2ccc(C(F)(F)F)cc2)c2cncnc2)CC1 (stereo unspecified)	> 1000	> 1000	> 100000
O=C(NC1CC1)N1CCN(C(c2cncnc2)c2ccc(C(F)(F)F)cc2F)CC1 (stereo unspecified)	490	792	> 100000
N#Cc1ccc(C(c2cccnc2)N2CCN(C(=O)C3CC3)CC2)cc1 (stereo unspecified)	281	556	> 100000
N#Cc1ccc(C(c2cccnc2)N2CCC(NC(=O)c3cccc(C(F)(F)F)c3)CC2)cc1 (stereo unspecified)	23	75.5	> 100000
CS(=O)(=O)N1CCN(C(c2cncnc2)c2ccc(C(F)(F)F)cc2F)CC1 (stereo unspecified)	24.5	72.5	> 100000
N#Cc1ccc(C(c2cccnc2)N2CCC(NC(=O)c3cc(F)ccc3F)CC2)cc1 (stereo unspecified)	15.5	49	> 100000
CS(=O)(=O)N1CCN(C(c2ccc(C(F)(F)F)cc2)c2cncnc2)CC1 (stereo unspecified)	768	> 1000	> 100000
O=C(C1CC1)N1CCN(C(c2cncnc2)c2ccc(C(F)(F)F)cc2F)CC1 (stereo unspecified)	178	332	> 100000
CC(C)OCCCNC(=O)c1cccc(C(O)(c2ccc(Cl)cc2)c2cccnc2)c1 (stereo unspecified)	97.5	232	74800
Cc1noc(C)c1C(=O)NC1CCN(C(c2ccc(C#N)cc2)c2cccnc2)CC1 (stereo unspecified)	51.5	104	> 100000

More lines, main results first:

IC50 (Trypanosoma cruzi [1]) [nM]	IC90 (Trypanosoma cruzi [2]) [nM]	Structure (SMILES)	IC50 [3] [nM]
71	202	Cc1ncsc1C(=O)NC1CCN(C(c2ccc(C#N)cc2)c2cccnc2)CC1 (stereo unspecified)	> 100000
4.5	10	Fc1cc(Cl)ccc1C(NC1CCN(c2ccccc2F)CC1)c1cccnc1 (stereo unspecified)	53200
10	40	N#Cc1ccc(C(c2cccnc2)N2CCC(NC(=O)c3ccc(F)cc3F)CC2)cc1 (stereo unspecified)	> 100000
65	156	Cc1nc(C(=O)NC2CCN(C(c3ccc(C#N)cc3)c3cccnc3)CC2)cs1 (stereo unspecified)	> 100000
365	734	CS(=O)(=O)N1CCN(C(c2ccc(C#N)cc2)c2cccnc2)CC1 (stereo unspecified)	> 100000
64	127	Cc1noc(N2CCN(C(c3ccc(C#N)cc3)c3cccnc3)CC2)n1 (stereo unspecified)	> 100000
64	140	Cc1nc(N2CCC(NC(c3cccnc3)c3ccc(Cl)cc3F)CC2)no1 (stereo unspecified)	> 100000
59	118	Cc1nc(C)c(C(=O)NC2CCN(C(c3ccc(C#N)cc3)c3cccnc3)CC2)s1 (stereo unspecified)	> 100000
332	652	O=C(C1CC1)N1CCN(C(c2ccc(C(F)(F)F)cc2)c2cncnc2)CC1 (stereo unspecified)	> 100000
> 1000	> 1000	N#Cc1ccc(C(c2cccnc2)N2CCN(C(=O)NC3CC3)CC2)cc1 (stereo unspecified)	> 100000
192	378	Cc1noc(N2CCN(C(c3ccc(C(F)(F)F)cc3)c3cncnc3)CC2)n1 (stereo unspecified)	> 100000
17	55.5	N#Cc1ccc(C(c2cccnc2)N2CCC(NC(=O)c3cccc(F)c3F)CC2)cc1 (stereo unspecified)	> 100000
20.5	76.5	N#Cc1ccc(C(c2cccnc2)N2CCC(NC(=O)c3ccc(C(F)(F)F)cc3)CC2)cc1 (stereo unspecified)	65700
109	266	FC(F)(F)c1ccc(C(c2cncnc2)N2CCN(c3nccs3)CC2)cc1 (stereo unspecified)	68200
55	101	Cc1nocc1C(=O)NC1CCN(C(c2ccc(C#N)cc2)c2cccnc2)CC1 (stereo unspecified)	> 100000
345	696	N#Cc1ccc(C(c2cccnc2)N2CCC(NC(=O)c3ccc(C(F)(F)F)cc3F)CC2)cc1 (stereo unspecified)	76800
